Results from patent publication US11696913B2, “Prolonged ectoparasite-controlling agent for animal” (MITSUI CHEMICALS AGRO, INC., priority 2017, dated 2023).
Like-named read-outs stand apart in the source and are kept apart here.

How the values were obtained:
[1] = test system: Ctenocephalides felis; assay: Systemic treatment in-vivo test with cat flea on rats; details: intraperitoneal injection; for inhibition in vivo at 2 mg/kg / inhibition in vivo at 10 mg/kg: Ctenocephalides felis, ip
Protocol: (§1) Systemic Treatment In-Vivo Test with American Dog Tick Nymph and Cat Flea on Rats
(§2) Type of study and overall study design: The method is a randomized non-blinded efficacy study in accordance with European animal welfare requirements. Rats (Rattus norvegicus) were randomized based on pre-treatment flea counts. The efficacy of treatment was determined by comparison of the flea and tick counts of different treatment groups versus the placebo-treated control group. The experimental unit was the individual study animal. Method and route of administration: The compound was applied in a suitable solvent and carrier (more specifically, added to glycerol formal; in case of poorly soluble compounds, a solvent mixture with up to 25% by volume of N-methyl pyrrolidone may be used.) considering the individual body weight as an intraperitoneal injection.
(§3) Experimental infestation: On the day of treatment and weekly thereafter, 30 ticks (D. variabilis nymphs) were released onto the back of each rat, and 30 fleas (C. felis) were released onto the back of each rat 24 h later.
(§4) Tick and Flea counting: Rats were thoroughly examined and ticks and fleas were manually removed 48 h (±4 h) after tick infestation and 24 h after flea infestation. Live fleas and live attached engorged ticks were counted. In non-evident cases, engorgement status was evaluated by squeezing the tick on a filter paper to find traces of blood as sign for engorgement.

[2] = test system: Ctenocephalides felis; assay: Topical treatment in-vivo test with cat flea on rats; details: topical spot-on
Protocol: (§5) Topical Treatment In-Vivo Test with American Dog Tick Nymph and Cat Flea on Rats
(§6) Type of study and overall study design: The method is a randomized non-blinded efficacy study in accordance with European animal welfare requirements. Rats (Rattus norvegicus) were randomized based on pre-treatment flea counts. The efficacy of treatment was determined by comparison of the flea and tick counts of different treatment groups versus the placebo-treated control group. The experimental unit was the individual study animal.
(§7) Method and route of administration: The compound was applied in a suitable solvent and carrier (more specifically, added to the following mixture: 33.3% by weight propylene carbonate, […] N-methylpyrrolidone, 0.1% by weight BHA, 0.05% by weight BHT) considering the individual body weight as topical spot-on between the shoulder blades directly onto the skin.
as §3
as §4, with “(+4” for “(±4”

[3] = test system: Dermacentor variabilis; assay: Systemic treatment in-vivo test with American dog tick nymph on rats; details: intraperitoneal injection; for inhibition in vivo at 2 mg/kg / inhibition in vivo at 10 mg/kg: Dermacentor variabilis, ip
Protocol: as §1, §2, §3, §4

[4] = test system: Plutella xylostella; assay: Insecticidal testing against diamondback moth; type: in vivo; details: foliar, 144 h, concentration 100 ppm, cabbage leaf dip, third-stage larvae, after 6 days, read-out: pesticidal rate
Text: Insecticidal Testing Against Diamondback Moth (Plutella xylostella)

[5] = test system: Ixodes ricinus; assay: In vitro contact test with adult hard ticks (Ixodes ricinus); details: read-out: acaricidal activity
Outline: (§8)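 Adult R. sanguineus, I. ricinus, D. variabilis or A. americanum nymphs exposed in glass vials coated with compound from acetone (900 ppm gives 5 μg/cm^2). Held 48 h at room temperature (R. sanguineus) or 21° C., 85% rel. hum.; then heated at 45-50° C. ≤5 min, motionless or uncoordinated ticks scored dead/moribund.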

[6] = test system: Dermacentor variabilis; assay: In vitro contact test with adult hard ticks (Dermacentor variabilis); details: read-out: acaricidal activity
Outline: as §8

[7] = test system: Ctenocephalides felis; assay: In vitro contact test with fleas; details: read-out: insecticidal activity
Outline: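 Adult male and female cat fleas (5-10 per tube) placed in glass tubes coated with compound from acetone solution (900 ppm gives 5 μg/cm^2), kept at room temperature and ambient humidity. After 48 h, motionless or uncoordinated fleas scored dead or moribund; activity expressed as % dead or moribund.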

[8] = test system: Spodoptera litura; assay: Insecticidal testing against common cutworm; type: in vivo; details: foliar, 144 h, concentration 100 ppm, cabbage leaf dip, second-stage larvae, after 6 days, read-out: pesticidal rate
Text: Insecticidal Testing Against Common Cutworm (Spodoptera litura)

[9] = test system: Laodelphax striatellus; assay: Insecticidal testing against small brown planthopper; type: in vivo; details: 144 h, concentration 100 ppm, sprayed rice seedlings, after 6 days, read-out: pesticidal rate
Outline: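 Acetone solution of compound at a set concentration sprayed onto rice seedlings, air-dried, then exposed to 10 planthoppers (one group). Held at 25° C; survival rate recorded after 6 days.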

[10] = test system: Rhipicephalus (Boophilus) microplus; assay: In vitro injection test with Rhipicephalus (Boophilus) microplus (BOOPMI Inj); details: 168 h, laid fertile eggs after 7 days, read-out: acaricidal activity
Outline: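 Test substance in DMSO; 1 μl injected into abdomen of each of 5 engorged adult female ticks, then held at 28° C., 85% rel. hum. Activity scored after 7 days from laying of fertile eggs: 100% = no eggs or all infertile, 0% = all eggs fertile.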

[11] = test system: Rhipicephalus sanguineus; assay: In vitro contact test with adult hard ticks (Rhipicephalus sanguineus); details: read-out: acaricidal activity
Outline: as §8

[12] = test system: Ctenocephalides felis; assay: Ctenocephalides felis in-vitro feeding test with fleas (CTECFE oral); details: 48 hours, read-out: insecticidal feeding activity
Outline: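 About 20 unfed adult cat fleas fed through parafilm on citrated cattle blood containing test substance (DMSO solution diluted in blood), held at about 37° C. Kill rate scored after 48 hours, 100% meaning all fleas dead.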

[13] = test system: Dermacentor variabilis; assay: Topical treatment in-vivo test with American dog tick nymph on rats; details: topical spot-on, 25 mg/kg
Protocol: as §5, §6, §7, §3
as §4, with “(+4” for “(±4”

[14] = 2 mg/kg, SD 2, read-out: Geometric mean percent reduction in live tick (Dermacentor variabilis) counts compared to untreated control rats
[15] = 2 mg/kg, SD 9, read-out: Geometric mean percent reduction in live tick (Dermacentor variabilis) counts compared to untreated control rats
[16] = 2 mg/kg, SD 16, read-out: Geometric mean percent reduction in live tick (Dermacentor variabilis) counts compared to untreated control rats

## O=C(CNC(=O)c1ccc(C2=NOC(c3cc(Cl)cc(C(F)(F)F)c3)(C(F)(F)F)C2)c2ccccc12)NCC(F)(F)F (centres unmarked) [Afoxolaner, afoxolaner, reference compound]
[1]; 2 mg/kg, SD 2
  Geometric mean percent reduction in live flea (Ctenocephalides felis) counts compared to untreated control rats: 69%
[1]; 2 mg/kg, SD 9
  Geometric mean percent reduction in live flea (Ctenocephalides felis) counts compared to untreated control rats: 20%
[1]; 2 mg/kg, SD 16
  Geometric mean percent reduction in live flea (Ctenocephalides felis) counts compared to untreated control rats: 48%
[1]; 10 mg/kg, SD 2
  Geometric mean percent reduction in live flea (Ctenocephalides felis) counts compared to untreated control rats: 100%
[1]; 10 mg/kg, SD 9
  Geometric mean percent reduction in live flea (Ctenocephalides felis) counts compared to untreated control rats: 97%
[1]; 10 mg/kg, SD 16
  Geometric mean percent reduction in live flea (Ctenocephalides felis) counts compared to untreated control rats: 60%
[1]; 10 mg/kg, SD 23
  Geometric mean percent reduction in live flea (Ctenocephalides felis) counts compared to untreated control rats: 0%
[2]; 10 mg/kg, SD 2
  Geometric mean percent reduction in live flea (Ctenocephalides felis) counts compared to untreated control rats: 100%
[2]; 10 mg/kg, SD 9
  Geometric mean percent reduction in live flea (Ctenocephalides felis) counts compared to untreated control rats: 99%
[2]; 10 mg/kg, SD 16
  Geometric mean percent reduction in live flea (Ctenocephalides felis) counts compared to untreated control rats: 51%
[2]; 10 mg/kg, SD 23
  Geometric mean percent reduction in live flea (Ctenocephalides felis) counts compared to untreated control rats: 16%
[3]; 2 mg/kg, SD 2
  Geometric mean percent reduction in live tick (Dermacentor variabilis) counts compared to untreated control rats: 86%
[3]; 2 mg/kg, SD 9
  Geometric mean percent reduction in live tick (Dermacentor variabilis) counts compared to untreated control rats: 53%
[3]; 2 mg/kg, SD 16
  Geometric mean percent reduction in live tick (Dermacentor variabilis) counts compared to untreated control rats: 5%
[3]; 10 mg/kg, SD 2
  Geometric mean percent reduction in live tick (Dermacentor variabilis) counts compared to untreated control rats: 100%
[3]; 10 mg/kg, SD 9
  Geometric mean percent reduction in live tick (Dermacentor variabilis) counts compared to untreated control rats: 10%
[3]; 10 mg/kg, SD 16
  Geometric mean percent reduction in live tick (Dermacentor variabilis) counts compared to untreated control rats: 78%
[3]; 10 mg/kg, SD 23
  Geometric mean percent reduction in live tick (Dermacentor variabilis) counts compared to untreated control rats: 0%

## CN(C(=O)c1ccc(F)cc1)c1cccc(C(=O)Nc2c(I)cc(C(F)(C(F)(F)F)C(F)(F)F)cc2OC(F)F)c1F [Compound 90]
[4]
  pest or weed control at 100 ppm: ≥ 70%
[5]; dose 1 μg/cm^2, 48 h
  pest or weed control at 1 µg/cm2, 1 µg/cm2: 90%
[5]; dose 5 μg/cm^2, 48 h
  pest or weed control at 5 µg/cm2, 5 µg/cm2: 90%
[6]; dose 0.2 μg/cm^2, 48 h
  pest or weed control at 0.2 µg/cm2, 0.2 µg/cm2: 90%
[6]; dose 1 μg/cm^2, 48 h
  pest or weed control at 1 µg/cm2, 1 µg/cm2: 90%
[7]; dose 0.04 μg/cm^2, dead or moribund fleas after 48 h
  pest or weed control at 0.04 µg/cm2, 0.04 µg/cm2: 95%
[7]; dose 0.2 μg/cm^2, dead or moribund fleas after 48 h
  pest or weed control at 0.2 µg/cm2, 0.2 µg/cm2: 95%
[7]; dose 1 μg/cm^2, dead or moribund fleas after 48 h
  pest or weed control at 1 µg/cm2, 1 µg/cm2: 95%
[8]
  pest or weed control at 100 ppm: ≥ 70%
[9]
  pest or weed control at 100 ppm: ≥ 70%
[10]; dose 0.0064 μg/animal injected
  pest or weed control at 6.4 ng: 100%
[10]; dose 0.032 μg/animal injected
  pest or weed control at 32 ng: 100%
[10]; dose 0.16 μg/animal injected
  pest or weed control at 0.00016 mg: 100%
[10]; dose 0.8 μg/animal injected
  pest or weed control at 0.0008 mg: 100%
[3]; [14]
  inhibition in vivo at 2 mg/kg: 100%
[3]; [15]
  inhibition in vivo at 2 mg/kg: 83%
[3]; [16]
  inhibition in vivo at 2 mg/kg: 29%
[11]; dose 0.2 μg/cm^2, 48 h
  pest or weed control at 0.2 µg/cm2, 0.2 µg/cm2: 90%
[11]; dose 1 μg/cm^2, 48 h
  pest or weed control at 1 µg/cm2, 1 µg/cm2: 90%
[12]; dose 0.032 ppm in citrated cattle blood
  pest or weed control at 0.032 ppm: 95%
[12]; dose 0.16 ppm in citrated cattle blood
  pest or weed control at 0.16 ppm: 95%
[12]; dose 0.8 ppm in citrated cattle blood
  pest or weed control at 0.8 ppm: 95%
[12]; dose 4 ppm in citrated cattle blood
  pest or weed control at 4 ppm: 95%

## CN(C(=O)c1ccccc1)c1cccc(C(=O)Nc2c(Br)cc(C(F)(C(F)(F)F)C(F)(F)F)cc2C(F)(F)F)c1F [Compound (B), reference compound]
[1]; 2 mg/kg, SD 2, read-out: Geometric mean percent reduction in live flea (Ctenocephalides felis) counts compared to untreated control rats
  inhibition in vivo at 2 mg/kg: 97%
[1]; 2 mg/kg, SD 9, read-out: Geometric mean percent reduction in live flea (Ctenocephalides felis) counts compared to untreated control rats
  inhibition in vivo at 2 mg/kg: 32%
[1]; 10 mg/kg, SD 2, read-out: Geometric mean percent reduction in live flea (Ctenocephalides felis) counts compared to untreated control rats
  inhibition in vivo at 10 mg/kg: 100%
[1]; 10 mg/kg, SD 9, read-out: Geometric mean percent reduction in live flea (Ctenocephalides felis) counts compared to untreated control rats
  inhibition in vivo at 10 mg/kg: 53%
[1]; 10 mg/kg, SD 16, read-out: Geometric mean percent reduction in live flea (Ctenocephalides felis) counts compared to untreated control rats
  inhibition in vivo at 10 mg/kg: 6%
[2]; 25 mg/kg, SD 2
  Geometric mean percent reduction in live flea (Ctenocephalides felis) counts compared to untreated control rats: 84%
[2]; 25 mg/kg, SD 9
  Geometric mean percent reduction in live flea (Ctenocephalides felis) counts compared to untreated control rats: 72%
[2]; 25 mg/kg, SD 16
  Geometric mean percent reduction in live flea (Ctenocephalides felis) counts compared to untreated control rats: 45%
[3]; [14]
  inhibition in vivo at 2 mg/kg: 75%
[3]; [15]
  inhibition in vivo at 2 mg/kg: 63%
[3]; [16]
  inhibition in vivo at 2 mg/kg: 0%
[3]; 10 mg/kg, SD 2, read-out: Geometric mean percent reduction in live tick (Dermacentor variabilis) counts compared to untreated control rats
  inhibition in vivo at 10 mg/kg: 100%
[3]; 10 mg/kg, SD 9, read-out: Geometric mean percent reduction in live tick (Dermacentor variabilis) counts compared to untreated control rats
  inhibition in vivo at 10 mg/kg: 11%
[3]; 10 mg/kg, SD 16, read-out: Geometric mean percent reduction in live tick (Dermacentor variabilis) counts compared to untreated control rats
  inhibition in vivo at 10 mg/kg: 2%
[13]; SD 2
  Geometric mean percent reduction in live tick (Dermacentor variabilis) counts compared to untreated control rats: 58%
[13]; SD 9
  Geometric mean percent reduction in live tick (Dermacentor variabilis) counts compared to untreated control rats: 85%
[13]; SD 16
  Geometric mean percent reduction in live tick (Dermacentor variabilis) counts compared to untreated control rats: 65%
[13]; SD 23
  Geometric mean percent reduction in live tick (Dermacentor variabilis) counts compared to untreated control rats: 4%
